Data on two molecules can be found in US20250042904A1, “COMPOUNDS USED AS SRC INHIBITORS” (WIGEN BIOMEDICINE TECHNOLOGY (SHANGHAI) CO., LTD., priority 2021, published 2025).

The target of one data set is recombinant protein Src (Homo sapiens (Human), UniProt P12931). As to the kind of experiment: In vitro assay for inhibiting Src kinase activity (biotin-labeled TK substrate, Sa-XL 665, Cryptate-labeled antibody). Type of data set: biochemical. Conditions: read-out: IC50, inhibitory activity against recombinant protein Src. The procedure: After the compound serially diluted with DMSO and a Src recombinant protein were incubated at room temperature for 10 min, the reaction was initiated by the addition of a biotin-labeled TK substrate and ATP. After the mixture was left to stand at room temperature for 40 min Sa-XL 665 and a Cryptate-labeled antibody were added. The fluorescence values at 615 nm and 665 nm were measured, and the ratio of 665 nm to 615 nm was calculated. The inhibition percentages and IC50 of the compounds were calculated compared to the DMSO group.

The nature of data set [1]: Stability experiment in aqueous hydrochloric acid solution pH 2 (HPLC). Conditions: for Initial purity: before acid treatment (baseline); for Purity after stirring in an aqueous hydrochloric acid solution with a pH of 2 for 0.5 h: pH 2, room temperature. In kind it is physicochemical. The protocol: 5 mg each of compound 59 and compound A was dissolved in an aqueous hydrochloric acid solution (5 mL) with a pH of 2. The mixture was stirred at room temperature. Samples were taken after 0.5 h for HPLC assay using the following assay conditions. The HPLC assay results are shown in Table 7. • Instrument: Agilent 1260 infinity 2 • Column: Xtimate C18 4.6*150 mm,3 um • Temperature:25° C. • Wave length:210 nm/254 nm • phase A: H2O (0.1% TFA) • phase B: MECN (0.1% TFA) • Gradient: […]

Data set [2] can be described thus: In vivo pharmacokinetic experiment in CD-1 female mice. To be noted: mouse, plasma, CD-1 mice; for Vd: read-out: Vdss. The protocol: CD-1 female mice aged 7 to 10 weeks were intravenously administered and orally administered at a dose of 2 mg/kg and 10 mg/kg, respectively. The mice were fasted for at least 12 h before the administration and given food 4 h after the administration, and they were given ad libitum access to water during the experiment. On the day of the experiment, animals in the intravenous group were administered the corresponding compound by single injection via the tail vein at an administration volume of 10 mL/kg. Animals in the oral group were administered the corresponding compound by single intragastric injection at an administration volume of 10 mL/kg. The animals were weighed before administration, and the administration volume was calculated according to the body weight. The sample collection time was 0.083 h (injection group), 0.167 h, 0.5 h, 1 h, 2 h, 4 h, 8 h, and 24 h. About 200 μL of whole blood was collected through the submaxillary venous plexus at each time point and used to prepare plasma for concentration determination by high-performance liquid chromatography-tandem mass spectrometry (LC-MS/MS). All animals were euthanized with CO2 anesthesia after the PK samples were collected at the last time point. The plasma concentrations were processed using a non-compartmental model of Phoenix WinNonlin™ version 8.3 (Certara) pharmacokinetic software, and the pharmacokinetic parameters were calculated using a linear-log trapezoidal method.

Data set [3] relates to PC3 subcutaneous xenograft tumor. As to the kind of experiment: In vivo pharmacodynamic study, mouse PC3 subcutaneous xenograft tumor model. The protocol:
Each nude mouse was grafted subcutaneously with 10×10^6 PC3 cells. When the tumor grew to 100-200 mm^3, the compound was administered orally once a day, and the tumor volume was measured twice a week and at the end of treatment. Tumor growth inhibition rate of the compound was calculated according to the following equation: tumor growth inhibition (TGI)=1−(tumor volume on day 17 in treatment group−tumor volume on day 1 in treatment group)/(tumor volume on day 17 in vehicle control group−tumor volume on day 1 in […]).

The subject of a further data set is PC3 cells. Briefly: In vitro anti-proliferative activity against PC3 cells (agarose, 7 days). In kind it is cell-based. To be noted: Homo sapiens, PC-3, 168 h, 7 days of incubation. The protocol: PC3 cells were mixed with 0.4% agarose at 1200 cells/well, and the mixture was seeded on 0.6% agarose. The compound serially diluted was added, and the cell number was measured after 7 days of incubation. The inhibition percentages and IC50 of the compounds were calculated compared to the DMSO group.

Chain of recombinant protein Src (P12931 whole entry, looked up): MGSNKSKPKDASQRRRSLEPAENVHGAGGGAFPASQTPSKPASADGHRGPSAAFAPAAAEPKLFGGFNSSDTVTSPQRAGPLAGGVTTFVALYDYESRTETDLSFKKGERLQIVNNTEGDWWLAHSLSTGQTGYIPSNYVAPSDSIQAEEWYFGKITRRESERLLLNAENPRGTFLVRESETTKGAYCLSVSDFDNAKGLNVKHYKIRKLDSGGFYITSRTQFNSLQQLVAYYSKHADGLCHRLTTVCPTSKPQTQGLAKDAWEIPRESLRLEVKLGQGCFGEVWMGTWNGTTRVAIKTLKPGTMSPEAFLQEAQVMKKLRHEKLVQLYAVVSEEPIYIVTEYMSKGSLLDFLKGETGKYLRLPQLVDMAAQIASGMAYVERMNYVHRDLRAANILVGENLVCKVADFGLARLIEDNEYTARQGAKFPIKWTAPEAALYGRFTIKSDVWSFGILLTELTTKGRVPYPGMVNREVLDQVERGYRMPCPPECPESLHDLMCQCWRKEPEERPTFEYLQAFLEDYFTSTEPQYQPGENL

Regarding `COc1cc(-c2nn(CCN3CCC(N(C)C)CC3)c3ncnc(N)c23)ccc1NC(=O)OC1(C)CC1` [Compound 59], the IC50 on recombinant protein Src is not above 10 nM. Further, in data set [1], the Initial purity is on record as 96.35% and the “Purity after stirring in an aqueous hydrochloric acid solution with a pH of 2 for 0.5 h” value stood at 96.16%. In data set [2] (oral administration 10 mg/kg), the AUC(0-t) came out at 491 ng·h/mL, the highest level (Cmax) was 88.9 ng/mL, the bioavailability came to 32.1% and the half-life was 5.3 h. Further, in data set [2] (iv, injection 2 mg/kg), the AUC(0-t) was determined as 300 ng·h/mL, the clearance was 1770 mL/min/kg, the half-life was 5.9 h and the Vd worked out at 35.6 L/kg. Further, in data set [3] (day 17, oral once a day, 50 mg/kg (day 1-day 7), 80 mg/kg (day 8-day 18)), the “TGI (tumor growth inhibition)” value turned out to be 53%. The “Tumor volume on day 17 of treatment” value in data set [3] (nude mice, oral once a day, 50 mg/kg (day 1-day 7), 80 mg/kg (day 8-day 18)) turned out to be 318 mm^3. In addition, the “Tumor volume on day 1 of treatment” value in data set [3] (nude mice, oral once a day, baseline day 1) came to 120 mm^3. Moreover, half-maximal inhibition in the data set with PC3 cells (IC50) was put at 5.3 nM.

`COc1cc(-c2nn(CCN3CCC(N(C)C)CC3)c3ncnc(N)c23)ccc1NC(=O)OC(C)(C)C` [Compound A, reference compound]: in data set [1], the Initial purity amounted to 96.18% and the “Purity after stirring in an aqueous hydrochloric acid solution with a pH of 2 for 0.5 h” value is on record as “Complete degradation”. Further, in data set [2] (oral administration 10 mg/kg), the AUC(0-t) amounted to 1440 ng·h/mL, the Cmax was 211 ng/mL, the bioavailability stood at 42.9% and the half-life is 5.7 h. Further, in data set [2] (iv, injection 2 mg/kg), the AUC(0-t) turned out to be 682 ng·h/mL, the clearance is 775 mL/min/kg, the half-life was 6.4 h and the Vd came to 15.2 L/kg.

For orientation: IC50 means the midpoint of a concentration-inhibition curve. What is called AUC(0-t) is exposure summed from dosing to a finite time, without extrapolation to infinity. As a reminder, the Cmax is the highest concentration seen after dosing. A word on the bioavailability: it is the share of a dose that reaches the circulation, judged against a reference dose that is usually intravenous. One may read the half-life as the time needed for the level to fall by half in the phase considered. Low values mean rapid decline, high ones slow decline. What is called clearance is the volume of plasma or blood freed of the substance per unit of time. Low readings indicate a low capacity for elimination, high ones a high capacity for elimination.
